IC50 and Ki data for 28 molecules are collected here from ChEMBL document CHEMBL1135212, “Evolution, synthesis and SAR of tripeptide alpha-ketoacid inhibitors of the hepatitis C virus NS3/NS4A serine protease” (Bioorg Med Chem Lett, 2002).

Molecules are shown by their SMILES. Square brackets hold non-standard residues; d marks the D form. Peptide text beside a SMILES is read from it. Dip = N[C@H](C(=O)O)C(c1ccccc1)c1ccccc1; Abu(4,4-F2) = N[C@@H](CC(F)F)C(=O)O; Cha = N[C@@H](CC1CCCCC1)C(=O)O

For orientation: IC50 means the midpoint of a concentration-inhibition curve. Read a high IC50 as lower potency. The term Ki denotes a measure of affinity in units of concentration, obtained from inhibition or displacement. Read a low Ki as higher affinity.

Chain of Genome polyprotein (P26664 1027-1657 limits assumed): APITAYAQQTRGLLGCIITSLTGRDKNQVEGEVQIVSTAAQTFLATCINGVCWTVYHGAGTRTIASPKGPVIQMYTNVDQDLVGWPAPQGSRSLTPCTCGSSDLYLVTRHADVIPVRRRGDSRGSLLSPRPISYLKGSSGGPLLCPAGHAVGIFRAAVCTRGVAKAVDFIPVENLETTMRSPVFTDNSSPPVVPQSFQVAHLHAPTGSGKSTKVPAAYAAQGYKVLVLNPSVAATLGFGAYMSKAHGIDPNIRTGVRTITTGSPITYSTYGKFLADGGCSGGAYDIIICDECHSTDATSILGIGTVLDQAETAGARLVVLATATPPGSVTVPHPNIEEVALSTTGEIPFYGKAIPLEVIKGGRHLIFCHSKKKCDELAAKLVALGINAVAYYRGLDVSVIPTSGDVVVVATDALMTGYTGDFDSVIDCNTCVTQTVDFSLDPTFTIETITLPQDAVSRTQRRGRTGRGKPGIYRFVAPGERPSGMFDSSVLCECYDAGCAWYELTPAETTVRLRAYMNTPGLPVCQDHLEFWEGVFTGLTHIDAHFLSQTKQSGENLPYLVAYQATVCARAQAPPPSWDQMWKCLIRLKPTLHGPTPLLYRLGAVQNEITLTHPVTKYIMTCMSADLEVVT
Chain of Genome polyprotein (P26664 1658-1711 limits assumed): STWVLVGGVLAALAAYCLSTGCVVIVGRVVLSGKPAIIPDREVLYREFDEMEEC

One experiment addresses Genome polyprotein (Hepatitis C virus genotype 1a (isolate 1) (HCV), UniProt P26664). The experiment is described as follows: Inhibition to hepatitis C virus (HCV) NS3/NS4A serine protease.
The molecule `CC(=O)N[C@H](C(=O)[C@H](CCC(=O)O)N[C@@H](CC1CCCCC1)C(=O)N[C@H](C=O)CC(F)F)C(c1ccccc1)c1ccccc1` yielded an IC50 above 50 µM. On to `CC[C@H](C)[C@H](NC(=O)OCc1ccccc1)C(=O)N[C@@H](CC(C)C)C(=O)N[C@H](C=O)CC(F)F`, for which the IC50 is above 50 µM. In the case of `CC(=O)N[C@H](C(=O)[C@H](CCC(=O)O)N[C@@H](CC1CCCCC1)C(=O)N[C@@H](CC(F)F)C(=O)C(=O)O)C(c1ccccc1)c1ccccc1`, half-maximal inhibition (IC50) required 5.3 µM. Molecule `CC[C@H](C)[C@H](NC(=O)OCc1ccccc1)C(=O)N[C@@H](CC(C)C)C(=O)N[C@@H](CC(F)F)C(=O)c1nnn[nH]1` came in with a half-maximal inhibitory concentration (IC50) above 50 µM.

In turn, `CC(C)C[C@H](NC(=O)[C@H](C)NC(=O)OC(C)(C)C)C(=O)N[C@@H](CC(F)F)C(=O)C(=O)O` had a 50% inhibitory concentration (IC50) of 8.9 µM.

`CC(=O)N[C@H](C(=O)[C@H](CCC(=O)O)N[C@@H](CC1CCCCC1)C(=O)N[C@@H](CC(F)F)C(=O)O)C(c1ccccc1)c1ccccc1`: the 50% inhibitory concentration (IC50) is above 50 µM.

Turning to `CCC(C)[C@H](NC(=O)OCc1ccc(C(=O)OC)cc1)C(=O)N[C@@H](CC(C)C)C(=O)N[C@@H](CC(F)F)C(=O)C(=O)O` (stereo partly drawn), half-maximal inhibition (IC50) was put at 1.7 µM. `CCC(C)[C@H](NC(=O)OCc1ccccc1)C(=O)N[C@@H](CC(C)C)C(=O)N[C@@H](CC(F)F)C(=O)C(=O)OC` (stereo partly drawn) returned an IC50 above 50 µM. For the molecule `CC[C@H](C)[C@H](NC(=O)OCc1ccccc1)C(=O)N[C@@H](CC1CCCCC1)C(=O)N[C@@H](CC(F)F)C(=O)C(=O)O`, the IC50 was found to be 1.4 µM. As to `CC[C@H](C)[C@H](NC(=O)OCc1ccccc1)C(=O)N[C@@H](CC(C)C)C(=O)N[C@@H](CC(F)F)C(=O)C(=O)O`, half-maximal inhibition (IC50) required 1.7 µM. As to `CC(C)(C)OC(=O)N[C@@H](CCC(=O)O)C(=O)N[C@@H](CC(F)F)C(=O)N[C@@H](CC(F)F)C(=O)C(=O)O`, the IC50 worked out at 0.3 µM. The molecule `CCC(C)[C@H](NC(=O)OCc1ccc(C(=O)O)cc1)C(=O)N[C@@H](CC(C)C)C(=O)N[C@@H](CC(F)F)C(=O)C(=O)O` (stereo partly drawn) displayed an IC50 of 0.44 µM. `CC(C)C[C@H](NC(=O)[C@@H](NC(=O)OC(C)(C)C)C(C)C)C(=O)N[C@@H](CC(F)F)C(=O)C(=O)O` displayed an IC50 of 0.46 µM.

Take `CCC(C)[C@H](NC(=O)OCc1ccccc1)C(=O)N[C@@H](CC(C)C)C(=O)N[C@@H](CC(F)F)C(O)C(=O)O` (stereo partly drawn): the half-maximal inhibitory concentration (IC50) is above 50 µM. Molecule `CC[C@H](C)[C@H](NC(C)=O)C(=O)N[C@@H](CC(C)C)C(=O)N[C@@H](CC(F)F)C(=O)C(=O)O` returned a half-maximal inhibitory concentration (IC50) of 16 µM. This counts as double-digit micromolar. In the case of `CCC(C)[C@H](NC(=O)OCc1ccccc1)C(=O)N[C@H](C(=O)N[C@@H](CC(F)F)C(=O)C(=O)O)C(C)C` (stereo partly drawn), the half-inhibitory concentration (IC50) came to 16 µM.

In turn, `CCC(C)[C@H](NC(=O)NCc1ccccc1)C(=O)N[C@@H](CC(C)C)C(=O)N[C@@H](CC(F)F)C(=O)C(=O)O` (stereo partly drawn) registered a half-inhibitory concentration (IC50) of 3.3 µM. `CC[C@H](NC(=O)[C@@H](NC(=O)OCc1ccccc1)[C@@H](C)CC)C(=O)N[C@@H](CC(F)F)C(=O)C(=O)O` came in with an IC50 of 3.28 µM. Molecule `CCC(C)[C@H](NC(=O)OCc1ccccc1)C(=O)N[C@@H](Cc1ccccc1)C(=O)N[C@@H](CC(F)F)C(=O)C(=O)O` (stereo partly drawn) returned an IC50 of 9.4 µM. `CC(C)C[C@H](NC(=O)[C@H](CC(=O)O)NC(=O)OC(C)(C)C)C(=O)N[C@@H](CC(F)F)C(=O)C(=O)O` showed an IC50 of 1.63 µM. Still for that read-out and setting: under `CC(C)C[C@H](NC(=O)[C@H](CCC(N)=O)NC(=O)OC(C)(C)C)C(=O)N[C@@H](CC(F)F)C(=O)C(=O)O` stands 2.1 µM. The molecule `CC[C@H](C)[C@H](NC(=O)OCc1ccccc1)C(=O)N[C@@H](C)C(=O)N[C@@H](CC(F)F)C(=O)C(=O)O` yielded a 50% inhibitory concentration (IC50) of 15.6 µM. Turning to `CC(C)C[C@H](NC(=O)[C@H](CCC(=O)O)NC(=O)OC(C)(C)C)C(=O)N[C@@H](CC(F)F)C(=O)C(=O)O`, half-maximal inhibition (IC50) required 0.33 µM. This IC50 lies about 47-fold lower than the previous one. For `CC[C@H](C)[C@H](NC(=O)OC(C)(C)C)C(=O)N[C@@H](CC(C)C)C(=O)N[C@@H](CC(F)F)C(=O)C(=O)O`, it took 1 µM to reach half-maximal inhibition (IC50). In turn, `CCC(C)[C@H](NC(=O)OCc1ccccc1)C(=O)N[C@@H](CC(C)C)C(=O)N[C@H](CC(=O)O)CC(F)F` (stereo partly drawn) registered a half-inhibitory concentration (IC50) above 50 µM. On to `CC[C@H](C)[C@H](NC(=O)OCc1ccccc1)C(=O)NCC(=O)N[C@@H](CC(F)F)C(=O)C(=O)O`, for which the IC50 was above 100 µM. Take `CC(C)C[C@H](NC(=O)[C@@H](NC(=O)OC(C)(C)C)C1CCCC1)C(=O)N[C@@H](CC(F)F)C(=O)C(=O)O`: it took 0.38 µM to reach half-maximal inhibition (IC50).

Another experiment deals with Hepatitis C virus serine protease, NS3/NS4A (Hepatitis C virus, UniProt A3EZI9+D2K2A8). The experiment is described as follows: Inhibitory activity against hepatitis C virus (HCV) NS3/NS4A serine protease. It counts as protein-complex assay, Hepacivirus hominis.
Chain of Hepatitis C virus serine protease, NS3/NS4A (D2K2A8 whole entry): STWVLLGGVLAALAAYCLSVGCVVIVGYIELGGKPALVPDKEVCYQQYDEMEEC
Chain of Hepatitis C virus serine protease, NS3/NS4A (A3EZI9 whole entry): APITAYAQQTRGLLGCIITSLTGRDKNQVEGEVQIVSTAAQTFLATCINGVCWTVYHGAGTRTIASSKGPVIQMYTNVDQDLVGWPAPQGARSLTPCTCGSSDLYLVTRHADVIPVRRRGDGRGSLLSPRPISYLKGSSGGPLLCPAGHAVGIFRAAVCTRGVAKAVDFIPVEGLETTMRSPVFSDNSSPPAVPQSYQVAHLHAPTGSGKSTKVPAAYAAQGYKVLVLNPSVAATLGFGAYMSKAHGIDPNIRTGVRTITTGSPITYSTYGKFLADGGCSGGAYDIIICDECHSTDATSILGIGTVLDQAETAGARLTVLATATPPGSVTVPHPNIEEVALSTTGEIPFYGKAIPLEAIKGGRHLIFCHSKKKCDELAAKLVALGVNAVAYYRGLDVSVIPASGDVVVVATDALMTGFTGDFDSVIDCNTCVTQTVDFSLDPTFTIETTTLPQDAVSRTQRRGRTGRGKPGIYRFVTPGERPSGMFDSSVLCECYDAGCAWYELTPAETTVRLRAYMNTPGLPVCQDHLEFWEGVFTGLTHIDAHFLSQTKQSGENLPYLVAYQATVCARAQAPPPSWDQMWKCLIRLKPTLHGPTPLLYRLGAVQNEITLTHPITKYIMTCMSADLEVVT
As for `CC(=O)N[C@@H](CC(=O)O)C(=O)N[C@@H](CCC(=O)O)C(=O)N[C@H](C(=O)N[C@@H](CCC(=O)O)C(=O)N[C@@H](CC1CCCCC1)C(=O)N[C@@H](CC(F)F)C(=O)O)C(c1ccccc1)c1ccccc1` (Ac-DE[Dip]E[Cha][Abu(4,4-F2)]-OH), the affinity corresponds to a Ki of 40 nM.
